Measured values published in US4472397A, “Use of certain 1-substituted-triazolo-benzodiazepines to treat psychoses” (priority 1983, dated 1984).
“Also recorded” adds a separate entry of the source. Like-named read-outs stand apart in the source and are kept apart here.

How the values were obtained:
[1] = tested on: psychotic, including schizophrenic, disorders; assay: Clinical trials in human patients with psychotic, including schizophrenic, disorders (Example 3); assay type: in vivo
Experimental: Clinical trials with the lead compound, adinazolam, in the treatment of human patients for psychotic, including schizophrenic, disorders in the absence of depression are in progress. […] Patients are being maintained on dosages of from 2.5 to 20 mg. of adinazolam qid (four times a day).
In one patient extrapyramidal side effects persisting from previous medication disappeared with adinazolam therapy.

[2] = tested on: intractable psychosis or schizoaffective illnesses; assay: Preliminary clinical trials in human patients with intractable psychosis or schizoaffective illnesses; assay type: in vivo; details: small, but effective and safe dosage amounts
[3] = tested on: ^3 H-Spiroperidol binding; assay: animal or person; assay type: in vivo, Male ICR mice; details: for activity at 50 mg/kg: Mus musculus, sc, read-out: In vivo ^3 H-Spiroperidol % of Control
Experimental: The following representative compounds were tested in an in vivo mouse ^3 H-Spiroperidol binding test.
The test procedure was as follows:
Male ICR mice weighing 20-22 g were used.
The animals were dosed with the ^3 H-Spiroperidol solution at 66 micro-Curie/kg in 0.2 ml, by the subcutaneous route. The animals were sacrificed 2 hours later and sections of the brains of the mice were removed with striata and septum and some adjacent cortex. The tissues were weighed after freezing on dry ice and dissolved in 1 ml of Protosol overnight at 35° C. The Protosol was neutralized with 80 μl of 6N hydrochloric acid and 15 ml of ACS scintillation fluid was added. All samples were then counted in a liquid scintillation counter.
A background of 25 counts per minute (CPM) was subtracted from the counts for each sample counted. The CPM/mg of the tissue was calculated and a statistical t test was used to test the significance of the value.

schizoaffective patient = assay: Treatment of a human schizoaffective patient with adinazolam (Example 2); assay type: in vivo; details: 5 mg bid first day, 5 mg tid second day; over two days; one patient refractory to tricyclic antidepressant and stelazine
Experimental: In a human patient, adinazolam was given for two days at a dosage of 5 mg bid (twice a day) the first day and 5 mg tid (three times a day) the second day to a human schizoaffective patient suffering moodcongruent delusions and persecutory auditory hallucinations which had been refractory to four months of therapy with a tricyclic antidepressant and stelazine. The clinician serving the patient found a remarkable approximately fifty percent (50%) improvement in the patient's condition over the two days of treatment with adinazolam.

serum prolactin = assay: Serum prolactin levels in open-label depression studies; assay type: in vivo, human
Source text: (Three of the patients had been treated recently with a phenothiazine or amoxapine).

acute psychosis = details: cited from earlier work
[4] = Dose 50 mg/kg, subcutaneous, one hour before ^3 H-Spiroperidol, sacrificed 2 hours later

CN(C)Cc1nnc2n1-c1ccc(Cl)cc1C(c1ccccc1)=NC2 [Compound 1, 8-chloro-1-[(dimethylamino)methyl]-6-phenyl-4H--s-triazolo[4,3-a][1,4]-benzodiazepine]
improvement of patients ([1]; five patients, 2.5 to 20 mg qid, absence of depression): all experienced moderate or marked improvement
extrapyramidal side effects persisting from previous medication ([1]; one patient): disappeared
effect of unintentional withdrawal of medication ([1]; one patient, medication withdrawn for 24 hours): reverted to a psychotic condition
effect of reinitiated therapy ([1]; one patient, reinitiated in the morning after 24 hour withdrawal, that same day): became lucid again that same day
symptoms of schizophrenia and affective improvement [2]: improved symptoms of schizophrenia and affective improvement
activity at 50 mg/kg [3]: 82%
Activity in the ^3 H-Spiroperidol binding test (in words) ([3]; animals, in vivo, listed as adinazolam): active; also recorded: weak but suggested antipsychotic-like activity
improvement in the patient's condition (schizoaffective patient): ~50%
prolactin levels in patients with elevated prolactin at introductory screening (serum prolactin; four patients (2 males; 2 females), three recently treated with a phenothiazine or amoxapine): the prolactin levels in all four patients normalized
effect on serum prolactin levels (serum prolactin; open-label depression studies): no apparent elevating effect on serum prolactin levels

CN1CCN(c2nnc3n2-c2ccc(Cl)cc2C(c2ccccc2)=NC3)CC1 [Compound 2, 8-chloro-1-(4-methyl-1-piperazinyl)-6-phenyl-4H--s-triazolo[4,3-a][1,4]benzodiazepine]
In vivo ^3 H-Spiroperidol % of Control ([3]; Dose 50 mg/kg, subcutaneous, one hour before ^3 H-Spiroperidol, sacrificed 2 hours later, 50 mg/kg): 73%
activity at 50 mg/kg [3, 4]: 69%

CN(C)CCc1nnc2n1-c1ccc(Cl)cc1C(c1ccccc1)=NC2 [Compound 3, 8-chloro-1-[2-(dimethylamino)ethyl]-6-phenyl-4H--s-triazolo[4,3-a][1,4]benzodiazepine]
activity at 50 mg/kg [3, 4]: 78%

CN1CCN(c2nnc3n2-c2ccccc2C(c2ccccc2)=NC3)CC1 [Compound 4, 1-(4-methyl-1-piperazinyl)-6-phenyl-4H--s-triazolo[4,3-a][1,4]benzodiazepine]
activity at 50 mg/kg [3, 4]: 59%

CC1NC(c2ccccc2)c2cc(Cl)ccc2-n2c1nnc2N1CCN(C)CC1 (stereo not shown) [Compound 5, 8-chloro-1-(4-methyl-1-piperazinyl)-4-methyl-5,6-dihydro-6-phenyl-4H--s-triazolo[4,3-a][1,4]benzodiazepine]
In vivo ^3 H-Spiroperidol % of Control [3, 4]: 89%

CN1CCN(c2nnc3n2-c2ccccc2C(c2ccccc2Cl)=NC3)CC1 [Compound 6, 1-(4-methyl-1-piperazinyl)-6-(2-chlorophenyl)-4H--s-triazolo[4,3-a][1,4]benzodiazepine]
activity at 50 mg/kg [3, 4]: 65%

CCN1CCN(c2nnc3n2-c2ccccc2C(c2ccccc2Cl)=NC3)CC1 [Compound 7, 1-(4-ethyl-1-piperazinyl)-6-(2-chlorophenyl)-4H--s-triazolo[4,3][1,4]benzodiazepine]
activity at 50 mg/kg [3, 4]: 72%

CN1C(=O)CN=C(c2ccccc2)c2cc(Cl)ccc21 [diazepam]
effectiveness versus haloperidol in acute psychosis (acute psychosis; over 24 hours of treatment): at least as effective as haloperidol
sedation effects (acute psychosis; treatment of acute psychosis): marked sedation effects
